Measurements: US20050101595A1, “N-containing cycloalkyl-substituted amino-thiazole derivatives and pharmaceutical compositions for inhibiting cell proliferation and methods for their use” (PFIZER INC., priority 2003, published 2005)
Like-named read-outs stand apart in the source and are kept apart here.

What was measured:
CDK2/Cyclin A = CDK2/Cyclin A (Homo sapiens, UniProt P24941); experiment: Inhibition of CDK2/Cyclin A Retinoblastoma Kinase Activity; type: biochemical; conditions: for CDK2 % Inhibition At 0.03 μM: Table 2
Procedure, shortened: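 Baculovirus-expressed CDK2 complexed with proteolyzed cyclin A (10 or 19 nM), Rb fragment substrate, 25 μM [32P/33P]ATP, HEPES pH 7.4, 30 °C for 60 or 75 min under initial-rate conditions. Filter capture and phosphorimager readout; apparent Ki fitted to competitive or tight-binding competitive inhibition.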

HCT-116 cell line = experiment: Inhibition of cell growth, tetrazolium salt (MTT) assay; type: cell-based; conditions: for HCT-116 % Inhibition at 0.25 μM: 0.25 μM compound; for IC50: Homo sapiens, HCT-116, 120 h, MTT, three to five days, read-out: HCT-116 IC50
Procedure, shortened: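 First, cells were seeded in McCoy's 5A medium and held 4 h. Next, inhibitor concentrations in 0.5% (v/v) DMSO were applied for three to five days at 37° C, 5% CO2. Finally, after 4 h with 0.2 mg/mL MTT and medium removal, solubilized formazan was measured at 540 nm.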

[1] = target: human CDK4 and genetically truncated (1-264) cyclin D3 (Homo sapiens, UniProt P11802); experiment: Inhibition of CDK4/Cyclin D Retinoblastoma Kinase Activity; type: biochemical
Chain of human CDK4 and genetically truncated (1-264) cyclin D3 (P11802 whole entry, the tested form may be a part): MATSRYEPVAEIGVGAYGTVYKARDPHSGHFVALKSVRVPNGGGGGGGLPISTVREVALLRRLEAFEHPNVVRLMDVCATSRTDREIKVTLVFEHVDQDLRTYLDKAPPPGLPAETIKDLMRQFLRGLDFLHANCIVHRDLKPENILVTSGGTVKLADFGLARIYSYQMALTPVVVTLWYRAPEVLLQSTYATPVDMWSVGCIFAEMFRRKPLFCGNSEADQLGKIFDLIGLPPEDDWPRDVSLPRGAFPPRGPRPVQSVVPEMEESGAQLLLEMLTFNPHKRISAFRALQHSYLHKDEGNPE
Chain of human CDK4 and genetically truncated (1-264) cyclin D3 (P30281 1-264 partner): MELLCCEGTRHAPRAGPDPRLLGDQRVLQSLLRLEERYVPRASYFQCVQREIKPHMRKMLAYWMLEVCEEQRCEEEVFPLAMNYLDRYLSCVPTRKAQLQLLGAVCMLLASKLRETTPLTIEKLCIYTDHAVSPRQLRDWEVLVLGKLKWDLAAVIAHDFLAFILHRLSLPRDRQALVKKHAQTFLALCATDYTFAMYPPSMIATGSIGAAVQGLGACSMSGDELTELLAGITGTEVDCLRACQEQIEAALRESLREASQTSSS
Procedure, shortened: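 Human CDK4/truncated cyclin D3 (1-264) complex from baculovirus-infected insect cells, 5 nM, phosphorylating Rb fragment (residues 386-928, His-tagged) with 25 μM [32/33P]ATP in HEPES pH 7.4, MgCl2, 2% DMSO at 30° C. for 20 min (60 min for tight binders). Filter-captured radioactivity by phosphorimager; apparent Ki from competitive or tight-binding fits.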

SMILES | CDK2 % Inhibition at 0.03 μM (CDK2/Cyclin A; at 0.03 μM) | HCT-116 % Inhibition at 0.1 μM (HCT-116 cell line; HCT-116 cells, at 0.1 μM) | HCT-116 5 Inhibition at 0.25 μM (HCT-116 cell line; HCT-116 cells) | CDK4 % Inhibition at 0.03 μM ([1]; at 0.03 μM) | also measured
Nc1nc(NC2CCN(C(=O)CCc3ccccc3)CC2)sc1C(=O)c1c(F)cccc1F [Example R174] | 21% | 0% | 48 | 42% | –
COc1cc(NC(=O)N2CCC(Nc3nc(N)c(C(=O)c4c(F)cccc4F)s3)CC2)cc(OC)c1OC [Example O44] | – | – | – | – | CDK2 % Inhibition At 0.03 μM (CDK2/Cyclin A; 0.03 μM compound): 22%; HCT-116 % Inhibition at 0.25 μM (HCT-116 cell line; HCT-116, Table 2): 29%; CDK4 % Inhibition at 0.03 μM ([1]; 0.03 μM compound, Table 2): 12%
CN(C)c1cccc(C(=O)N2CCC(Nc3nc(N)c(C(=O)c4c(F)cccc4F)s3)CC2)c1 [Example R135] | 27% | 0% | 38 | 50% | –
Nc1nc(NC2CCN(S(=O)(=O)/C=C/c3ccccc3)CC2)sc1C(=O)c1c(F)cccc1F [Example P26] | – | – | – | – | CDK2 % Inhibition at 0.03 μM (CDK2/Cyclin A; 0.03 μM compound, Table 3): 37%; HCT-116 % Inhibition at 0.1 μM (HCT-116 cell line; 0.1 μM compound, HCT-116, Table 3): 4%; HCT-116 % Inhibition at 0.25 μM (HCT-116 cell line; HCT-116, Table 3): 23%; CDK4 % Inhibition at 0.03 μM ([1]; 0.03 μM compound, Table 3): 39%
COC(=O)c1ccc(C(=O)N2CCC(Nc3nc(N)c(C(=O)c4c(F)cccc4F)s3)CC2)cc1 [Example R33] | 58% | 1% | 49 | 80% | –
Nc1nc(NC2CCN(S(=O)(=O)c3ccc(OCCO)nc3)CC2)sc1C(=O)c1c(F)cccc1F [Example H4, 1-(4-Amino-2-{1-[6-(2-hydroxy-ethoxy)-pyridine-3-sulfonyl]-piperidin-4-ylamino}-thiazol-5-yl)-1-(2,6-difluoro-phenyl)-methanone] | – | – | – | – | Ki (CDK2/Cyclin A; apparent Ki, CDK2/proteolyzed cyclin A, Rb fragment substrate, 25 μM ATP): 0.7 nM; IC50 (HCT-116 cell line; first HCT-116 column (c4)): 100 nM; IC50 (HCT-116 cell line; second HCT-116 column (c5)): 500 nM; Ki ([1]; apparent Ki, CDK4/truncated cyclin D3, Rb fragment substrate, 25 μM ATP): 2.5 nM
Cc1ccc(Sc2ncccc2C(=O)N2CCC(Nc3nc(N)c(C(=O)c4c(F)cccc4F)s3)CC2)cc1 [Example R42] | 49% | 0% | 48 | 53% | –
COc1cc(C(=O)N2CCC(Nc3nc(N)c(C(=O)c4c(F)cccc4F)s3)CC2)cc(OC)c1OC [Example Q22] | – | – | – | – | CDK2 % Inhibition at 0.03 μM (CDK2/Cyclin A; 0.03 μM compound, Table 4): 24%; HCT-116 % Inhibition at 0.1 μM (HCT-116 cell line; 0.1 μM compound, HCT-116, Table 4): 16%; HCT-116 % Inhibition at 0.25 μM (HCT-116 cell line; HCT-116, Table 4): 48%; CDK4 % Inhibition at 0.03 μM ([1]; 0.03 μM compound, Table 4): 73%
CCOc1ccccc1C(=O)N1CCC(Nc2nc(N)c(C(=O)c3c(F)cccc3F)s2)CC1 [Example R6] | 14% | 12% | 51 | 42% | –
Nc1nc(NC2CCN(C(=O)c3ccc(C(F)(F)F)cc3)CC2)sc1C(=O)c1c(F)cccc1F [Example R152] | 17% | 0% | 40 | 41% | –
CCOC(=O)CCNC(=O)N1CCC(Nc2nc(N)c(C(=O)c3c(F)cccc3F)s2)CC1 [Example O73] | – | – | – | – | CDK2 % Inhibition At 0.03 μM (CDK2/Cyclin A; 0.03 μM compound): 29%; HCT-116 % Inhibition at 0.25 μM (HCT-116 cell line; HCT-116, Table 2): 42%; CDK4 % Inhibition at 0.03 μM ([1]; 0.03 μM compound, Table 2): 4%
COC(=O)CCCCCCCCC(=O)N1CCC(Nc2nc(N)c(C(=O)c3c(F)cccc3F)s2)CC1 [Example R76] | 53% | 0% | 38 | 64% | –
